# Test results as given in ChEMBL document CHEMBL3124891, “Tetrahydroquinoline derivatives as potent and selective factor XIa inhibitors” (J Med Chem, 2014).
# Activity calls are given as the source filed them. The rule behind the calls is not given here.
# Experiments:
# Plasma = test: Anticoagulant activity in human plasma assessed as concentration required to double activated partial thromboplastin time; assay type: functional
# Coagulation factor X = Coagulation factor X (Homo sapiens, UniProt P00742); test: Binding affinity to human factor 10a assessed as release of p-nitroaniline after 10 to 120 mins by spectrophotometric analysis
# Coagulation factor VII = biological target: T1, Coagulation factor VII (Homo sapiens, UniProt P08709); test: Binding affinity to human factor 7a assessed as release of p-nitroaniline after 10 to 120 mins by spectrophotometric analysis
# T1 sequence (P08709 whole entry): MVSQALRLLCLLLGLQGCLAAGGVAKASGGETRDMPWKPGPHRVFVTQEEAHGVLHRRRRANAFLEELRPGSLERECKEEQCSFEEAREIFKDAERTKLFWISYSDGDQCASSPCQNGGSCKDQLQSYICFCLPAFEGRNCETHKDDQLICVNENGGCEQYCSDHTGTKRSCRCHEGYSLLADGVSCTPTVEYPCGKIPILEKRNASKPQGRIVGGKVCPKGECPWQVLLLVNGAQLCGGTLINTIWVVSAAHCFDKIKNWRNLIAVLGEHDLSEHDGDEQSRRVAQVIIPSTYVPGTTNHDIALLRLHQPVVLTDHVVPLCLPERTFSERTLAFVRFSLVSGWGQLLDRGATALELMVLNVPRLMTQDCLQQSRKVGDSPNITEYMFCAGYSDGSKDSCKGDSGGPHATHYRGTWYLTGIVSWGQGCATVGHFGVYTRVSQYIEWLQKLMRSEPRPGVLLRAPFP
# Coagulation factor XI [1] = biological target: T2, Coagulation factor XI (Homo sapiens, UniProt P03951); test: Binding affinity to human factor 11a assessed as release of p-nitroaniline after 10 to 120 mins by spectrophotometric analysis
# Homo sapiens [2] = species: Homo sapiens; test: Selectivity ratio of Ki for human factor 10a to Ki for human factor 11a
# Homo sapiens [3] = species: Homo sapiens; test: Selectivity ratio of Ki for human factor 7a to Ki for human factor 11a
# Oryctolagus cuniculus = test: Antithrombotic activity in rabbit arteriovenous-shunt thrombosis model assessed as inhibition of clot formation compound administered as single bolus dose followed by five continuous infusion dose; assay type: functional
# Coagulation factor XI [4] = biological target: T2, Coagulation factor XI; test: Mixed-type inhibition of human factor 11a
# Coagulation factor XI [5] = biological target: T2, Coagulation factor XI; test: Competitive inhibition of human factor 11a assessed as release of p-nitroaniline after 10 to 120 mins by Michaelis-Menten equation analysis
# Chain of Coagulation factor X (P00742 41-179 limits assumed): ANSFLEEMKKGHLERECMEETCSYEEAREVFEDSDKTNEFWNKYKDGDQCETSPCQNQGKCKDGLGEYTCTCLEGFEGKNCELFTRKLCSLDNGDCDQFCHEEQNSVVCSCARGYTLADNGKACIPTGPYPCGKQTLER
# Chain of Coagulation factor X (P00742 235-488 limits assumed): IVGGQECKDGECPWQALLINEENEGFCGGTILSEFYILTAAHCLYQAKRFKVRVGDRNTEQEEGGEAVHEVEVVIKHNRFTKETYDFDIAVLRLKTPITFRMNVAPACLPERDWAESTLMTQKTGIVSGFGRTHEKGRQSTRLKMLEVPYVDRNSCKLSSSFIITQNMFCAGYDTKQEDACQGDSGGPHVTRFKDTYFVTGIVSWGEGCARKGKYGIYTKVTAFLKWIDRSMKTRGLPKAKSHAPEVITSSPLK
# T2 sequence (P03951 19-387 limits assumed): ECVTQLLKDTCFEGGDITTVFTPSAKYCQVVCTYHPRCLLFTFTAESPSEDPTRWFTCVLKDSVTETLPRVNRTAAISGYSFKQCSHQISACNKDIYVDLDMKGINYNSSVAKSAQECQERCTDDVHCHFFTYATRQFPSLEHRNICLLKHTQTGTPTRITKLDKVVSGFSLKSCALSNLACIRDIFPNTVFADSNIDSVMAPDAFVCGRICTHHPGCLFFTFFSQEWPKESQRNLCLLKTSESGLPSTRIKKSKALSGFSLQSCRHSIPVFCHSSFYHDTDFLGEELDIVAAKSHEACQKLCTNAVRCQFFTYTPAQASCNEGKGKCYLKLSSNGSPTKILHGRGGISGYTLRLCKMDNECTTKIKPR
# T2 sequence (P03951 388-625 limits assumed): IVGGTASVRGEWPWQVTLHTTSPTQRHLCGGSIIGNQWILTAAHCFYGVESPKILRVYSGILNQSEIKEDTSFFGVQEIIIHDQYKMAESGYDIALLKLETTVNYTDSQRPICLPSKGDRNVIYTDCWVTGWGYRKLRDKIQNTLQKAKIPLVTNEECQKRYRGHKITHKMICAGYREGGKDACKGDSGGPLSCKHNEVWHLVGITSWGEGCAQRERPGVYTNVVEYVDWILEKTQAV
SMILES,EC (Plasma),Ki (Coagulation factor X),Ki (Coagulation factor VII),Ki (Coagulation factor XI [1]),Ratio Ki (Homo sapiens [2]),Ratio Ki (Homo sapiens [3]),inhibition (Oryctolagus cuniculus),inhibition (Coagulation factor XI [4]),inhibition (Coagulation factor XI [5])
CC(C)CC(=O)Nc1cc(-c2ccc(C(N)=O)cc2C(=O)O)cc([C@@H]2C[C@](C)(c3ccccc3)c3cc(C(=N)N)ccc3N2)c1 (racemic),6.1 µM,0.784 µM,1.01 µM,0.00059 µM,,,,,
N=C(N)c1ccc2c(c1)[C@@H](c1ccccc1)C[C@@H](c1ccccc1-c1ccc(C(=O)O)cc1C(=O)O)N2 (racemic),,0.97 µM,0.29 µM,0.0085 µM,100,30,,,
"CC(C)CC(=O)Nc1cc(-c2ccc(C(N)=O)cc2C(=O)O)cc(C2CC(C)(c3ccccc3)c3cc(C(=N)N)ccc3N2)c1 (single isomer, unassigned; enantiomer 2)",,,,,,,Dose-dependent effect,Active,Active
CNC(=O)c1ccc(-c2cccc([C@@H]3C[C@](C)(c4ccccc4)c4cc(C(=N)N)ccc4N3)c2)c(C(=O)O)c1 (racemic),,4.1 µM,1.96 µM,0.154 µM,,,,,
C[C@]1(c2ccccc2)C[C@H](c2cccc(-c3ccc(C(N)=O)cc3C(=O)O)c2)Nc2ccc(C(=N)N)cc21 (racemic),,8.35 µM,16.3 µM,0.026 µM,,,,,
CC(C)NC(=O)c1ccc(-c2cccc([C@@H]3C[C@](C)(c4ccccc4)c4cc(C(=N)N)ccc4N3)c2)c(C(=O)O)c1 (racemic),,1.31 µM,1.77 µM,0.207 µM,,,,,
CN(C)Cc1ccc(-c2cccc([C@@H]3C[C@](C)(c4ccccc4)c4cc(C(=N)N)ccc4N3)c2)c(C(=O)O)c1 (racemic),,> 15 µM,0.61 µM,0.466 µM,,,,,
CC(C)(C)NC(=O)c1ccc(-c2cccc([C@@H]3C[C@](C)(c4ccccc4)c4cc(C(=N)N)ccc4N3)c2)c(C(=O)O)c1 (racemic),,6.4 µM,1.29 µM,0.54 µM,,,,,
C[C@]1(c2ccccc2)C[C@@H](c2cc(NC(=O)C3CC3)cc(-c3ccc(C(N)=O)cc3C(=O)O)c2)Nc2ccc(C(=N)N)cc21 (racemic),4.5 µM,0.88 µM,0.474 µM,0.00072 µM,,,,,
N=C(N)c1ccc2c(c1)[C@@H](c1ccccc1)C[C@@H](c1cc(N)cc(-c3ccccc3C(=O)O)c1)N2 (racemic),,0.057 µM,0.041 µM,0.0076 µM,,,,,
"CC(C)CC(=O)Nc1cc(-c2ccc(C(N)=O)cc2C(=O)O)cc(C2CC(C)(c3ccccc3)c3cc(C(=N)N)ccc3N2)c1 (single isomer, unassigned; enantiomer 1)",,5.67 µM,> 10.9 µM,0.23 µM,,,,,
C[C@]1(c2ccccc2)C[C@@H](c2cccc(-c3ccc(NS(C)(=O)=O)cc3C(=O)O)c2)Nc2ccc(C(=N)N)cc21 (racemic),,> 15 µM,0.237 µM,0.037 µM,,,,,
C[C@]1(c2ccccc2)C[C@@H](c2cccc(-c3ccc(N)cc3C(=O)O)c2)Nc2ccc(C(=N)N)cc21 (racemic),,3.98 µM,0.275 µM,0.064 µM,,,,,
COC(=O)c1ccc(-c2cccc([C@@H]3C[C@](C)(c4ccccc4)c4cc(C(=N)N)ccc4N3)c2)c(C(=O)O)c1 (racemic),,0.606 µM,0.442 µM,0.079 µM,,,,,
"CC1(c2ccccc2)CC(c2cccc(-c3ccc(C(N)=O)cc3C(=O)O)c2)Nc2ccc(C(=N)N)cc21 (single isomer, unassigned; (+)) [listing 1 of 2 here]",,,,,> 1000,200,,,
CC(C)CNC(=O)c1ccc(-c2cccc([C@@H]3C[C@H](c4ccccc4)c4cc(C(=N)N)ccc4N3)c2)c(C(=O)O)c1 (racemic),,0.024 µM,0.025 µM,0.023 µM,,,,,
CC(C)CNC(=O)c1ccc(-c2ccccc2[C@@H]2C[C@H](c3ccccc3)c3cc(C(=N)N)ccc3N2)c(C(=O)O)c1 (racemic),,1.1 µM,0.095 µM,0.025 µM,40,4,,,

SMILES,EC (Plasma),Ki (Coagulation factor X),Ki (Coagulation factor VII),Ki (Coagulation factor XI [1]),Ratio Ki (Homo sapiens [2]),Ratio Ki (Homo sapiens [3]),inhibition (Oryctolagus cuniculus),inhibition (Coagulation factor XI [4]),inhibition (Coagulation factor XI [5])
C[C@]1(c2ccccc2)C[C@@H](c2cccc(-c3ccc(C(=O)O)cc3C(=O)O)c2)Nc2ccc(C(=N)N)cc21 (racemic),,9.3 µM,2.6 µM,0.061 µM,,,,,
N=C(N)c1ccc2c(c1)[C@@H](c1ccccc1)C[C@@H](c1ccccc1-c1ccc(C(=O)O)cc1)N2 (racemic),,,,2.4 µM,,,,,
CC(=O)Nc1ccc(-c2cccc([C@@H]3C[C@](C)(c4ccccc4)c4cc(C(=N)N)ccc4N3)c2)c(C(=O)O)c1 (racemic),,5.81 µM,0.705 µM,0.11 µM,,,,,
"CC1(c2ccccc2)CC(c2cccc(-c3ccc(C(N)=O)cc3C(=O)O)c2)Nc2ccc(C(=N)N)cc21 (single isomer, unassigned; enantiomer 2)",,> 15 µM,> 15 µM,0.335 µM,,,,,
C[C@]1(c2ccccc2)C[C@@H](c2cccc(-c3ccccc3C(=O)O)c2)Nc2ccc(C(=N)N)cc21 (racemic),,6.7 µM,3.06 µM,0.11 µM,,,,,
N=C(N)c1ccc2c(c1)[C@@H](c1ccccc1)C[C@@H](c1ccccc1-c1ccccc1C(=O)O)N2 (racemic),,1.94 µM,2.2 µM,0.11 µM,,,,,
CCC(=O)Nc1cc(-c2ccc(C(N)=O)cc2C(=O)O)cc([C@@H]2C[C@](C)(c3ccccc3)c3cc(C(=N)N)ccc3N2)c1 (racemic),3.4 µM,1.48 µM,0.45 µM,0.00069 µM,,,,,
"CC1(c2ccccc2)CC(c2cccc(-c3ccc(C(N)=O)cc3C(=O)O)c2)Nc2ccc(C(=N)N)cc21 (single isomer, unassigned; (+)) [listing 2 of 2 here]",,2.33 µM,0.086 µM,0.00039 µM,,,,,
CCC[C@]1(c2ccccc2)C[C@@H](c2cccc(-c3ccc(C(=O)O)cc3C(=O)O)c2)Nc2ccc(C(=N)N)cc21 (racemic),,,,1.96 µM,,,,,
CNC(=O)Nc1ccc(-c2cccc([C@@H]3C[C@](C)(c4ccccc4)c4cc(C(=N)N)ccc4N3)c2)c(C(=O)O)c1 (racemic),,1.14 µM,0.451 µM,0.015 µM,,,,,
CCCC(=O)Nc1cc(-c2ccc(C(N)=O)cc2C(=O)O)cc([C@@H]2C[C@](C)(c3ccccc3)c3cc(C(=N)N)ccc3N2)c1 (racemic),4.1 µM,0.641 µM,0.52 µM,0.0003 µM,,,,,
C[C@]1(c2ccccc2)C[C@@H](c2cccc(-c3ccc(C(N)=O)cc3C(=O)O)c2)Nc2ccc(C(=N)N)cc21 (racemic),8.6 µM,3 µM,0.28 µM,0.0015 µM,,,,,
N=C(N)c1ccc2c(c1)[C@@H](c1ccccc1)C[C@@H](c1cccc(-c3ccc(C(=O)O)cc3C(=O)O)c1)N2 (racemic),,0.13 µM,0.089 µM,0.0039 µM,30,20,,,
CC[C@]1(c2ccccc2)C[C@@H](c2cccc(-c3ccc(C(=O)O)cc3C(=O)O)c2)Nc2ccc(C(=N)N)cc21 (racemic),,,,0.83 µM,,,,,
C[C@]1(c2ccccc2)C[C@@H](c2cc(N)cc(-c3ccc(C(N)=O)cc3C(=O)O)c2)Nc2ccc(C(=N)N)cc21 (racemic),1.2 µM,2.25 µM,0.056 µM,0.00064 µM,,,,,
C[C@]1(c2ccccc2)C[C@@H](c2cccc(-c3ccc(C#N)cc3C(=O)O)c2)Nc2ccc(C(=N)N)cc21 (racemic),,2.06 µM,0.867 µM,0.048 µM,,,,,
CC(=O)Nc1cc(-c2ccc(C(N)=O)cc2C(=O)O)cc([C@@H]2C[C@](C)(c3ccccc3)c3cc(C(=N)N)ccc3N2)c1 (racemic),2.1 µM,1.81 µM,0.23 µM,0.001 µM,,,,,
